Measured values from patent publication US12458638B2, “Method of stimulating neutrophil survival and reducing neutropenia” (BEYONDSPRING PHARMACEUTICALS, INC., priority 2017, dated 2025).
Where two headings read alike, the source gives them in different places.

Assays:
[1] = tested on: docetaxel-induced neutropenia; experiment: Grade 4 neutropenia in patients on docetaxel with or without plinabulin; format: in vivo, human; conditions: for proportion of patients with Grade 4 neutropenia: Cycle 1, Day 8, ANC<0.5×10^9/L, docetaxel alone vs plinabulin added to docetaxel, p<0.0003
[2] = Safety / product profile of plinabulin vs G-CSF in patients (bone pain, hospitalization, hypertension, laboratory parameters); format: in vivo, human
[3] = tested on: neutropenia caused by chemotherapies; experiment: Animal model studies of chemotherapy-caused neutropenia; format: in vivo; conditions: animal models; docetaxel, cisplatin, adriamycin, cyclosphosphamide, topotecan, gemcitabine
Source text: Clinical complications of neutropenia (febrile neutropenia, infections, sepsis, and mortality) occur with Grade 4 Neutropenia, as compared to with Grade 2 or 3 Neutropenia. For regulatory approval, the FDA and Health Authorities focus on Grade 4 Neutropenia data.

[4] = tested on: docetaxel-induced neutropenia; experiment: Randomized double blind study, plinabulin vs pegfilgrastim in solid tumor patients receiving docetaxel (Example 4); format: in vivo, human; conditions: for neutrophil count through time (FIG. 1): after docetaxel 75 mg/m^2
Procedure: A randomized, double blind study to evaluate duration of severe neutropenia with plinabulin versus pegfilgrastim in patients with solid tumors receiving docetaxel myelosuppressive chemotherapy was performed. Patients were randomly assigned to the following arms (with the respective sample sizes): Arm 1: Docetaxel (75 mg/m^2)+Pegfilgrastim (6 mg) (n=14); Arm 2: Docetaxel (75 mg/m^2)+Plinabulin (20 mg/m^2) (n=14); Arm 3: Docetaxel (75 mg/m^2)+Plinabulin (10 mg/m^2) (n=14); and Arm 4: Docetaxel (75 mg/m^2)+Plinabulin (5 mg/m^2) (n=13).

[5] = tested on: NSCLC patients with a measurable lesion; conditions: human, in vivo
[6] = tested on: docetaxel-induced severe neutropenia; experiment: Calculated DSN from Day 8 neutrophil nadir values (simulation, Deming regression); format: in vivo, human; conditions: from observed Day 8 neutrophil (nadir) values, Cycle 1
Source text: DSN is obtained using the following methods (described below) for generation of ANC data and the observed neutrophil values on Day 8/Cycle 1 in the Phase 2 study. […] The study may assume that the shape of the time/neutrophil recovery curve in plinabulin-treated patients is indistinguishable from the time/neutrophil recovery curve for filgrastim and its biosimilars.
Mean values and standard deviations of ANC during the 21-day follow-up period can be obtained from the reference. […] The simulation would then also generate the projected number of days with severe neutropenia, (i.e., the DSN).

[7] = tested on: chemotherapy-induced febrile/severe neutropenia; experiment: Reported FN frequency and DSN with docetaxel or TAC chemotherapy, with or without G-CSF; format: in vivo, human; conditions: docetaxel monotherapy 75 mg/m^2 without G-CSF
Procedure: The frequency of FN with docetaxel monotherapy (100 mg/m^2)+G-CSF is reported to be 1% in Cycle 1. […] 2002; 20:727-731.
The FN percentage is about 12.7% with 75 mg/m^2 docetaxel. Based on this range of FN and the relationship established between FN and DSN, the assumption is that, with docetaxel monotherapy at a dose of 75 mg/m^2 without G-CSF, the median DSN is estimated to be 4-5 days.
The margin can be selected based on the data that Taxotere/Adriamycin/cyclophosphamide (TAC) chemotherapy can induce a median DSN of 7 days in breast cancer patients receiving no G-CSF treatment, while G-CSF treatment reduces the mean DSN for this chemotherapy to 1.4 days (95% CI: 1.07-1.69) as shown in pegfilgrastim Study. Based on this a non-inferiority limit of 1 day is derived.

[8] = tested on: chemotherapy-induced febrile/severe neutropenia; conditions: cited from earlier work
[9] = biological target: CYP3A4 (Homo sapiens, UniProt P08684); conditions: with the use of strong CYP3A4 inhibitors; cited from earlier work
[10] = most common adverse reactions; cited from earlier work
[11] = G-CSF, Table 1; cited from earlier work
[12] = Plinabulin 5 mg/m2 + docetaxel 75 mg/m^2
[13] = Plinabulin 10 mg/m2 + docetaxel 75 mg/m^2
[14] = Plinabulin 20 mg/m2 + docetaxel 75 mg/m^2
[15] = Neulasta 6 mg + docetaxel 75 mg/m^2

CYP3A4, sequence (P08684 whole entry): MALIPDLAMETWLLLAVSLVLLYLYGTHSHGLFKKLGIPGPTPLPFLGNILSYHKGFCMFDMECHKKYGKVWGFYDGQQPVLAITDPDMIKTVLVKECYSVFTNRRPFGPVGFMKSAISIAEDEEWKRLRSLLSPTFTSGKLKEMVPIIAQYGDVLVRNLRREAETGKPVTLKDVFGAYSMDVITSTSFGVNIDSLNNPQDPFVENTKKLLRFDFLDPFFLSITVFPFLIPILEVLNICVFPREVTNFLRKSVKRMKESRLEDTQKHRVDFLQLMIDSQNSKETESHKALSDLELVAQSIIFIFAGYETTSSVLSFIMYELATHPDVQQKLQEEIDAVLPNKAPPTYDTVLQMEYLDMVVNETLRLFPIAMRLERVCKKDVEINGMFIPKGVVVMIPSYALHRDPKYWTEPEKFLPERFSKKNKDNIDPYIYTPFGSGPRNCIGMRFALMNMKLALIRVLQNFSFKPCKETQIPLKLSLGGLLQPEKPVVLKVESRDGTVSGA

CC(C)(C)c1[nH]cnc1/C=c1\[nH]c(=O)/c(=C/c2ccccc2)[nH]c1=O [Plinabulin, (3Z,6Z)-3-Benzylidene-6-{[5-(2-methyl-2-propanyl)-1H-imidazol-4-yl]methylene}-2,5-piperazinedione]
proportion of patients with Grade 4 neutropenia [1]: 4.6% | clinical sequelae associated with docetaxel-induced neutropenia (sepsis, infections, hospitalizations, docetaxel dose reductions, G-CSF use) ([1]; human, in vivo): reduced | Grade 3 transient hypertension, patients ([2]; 20 mg/m^2 plinabulin): 5% | Grade 3 transient hypertension, patients ([2]; 30 mg/m^2 plinabulin): 20% | Bone Pain (% of patients) ([2]; Plinabulin, Table 1): <4% | Hospitalization (% of patients) ([2]; Plinabulin, Table 1): 6% | Bone pain, patients reporting ([2]; patients receiving plinabulin): 4% | changes in hematology or chemistry laboratory parameters ([2]; plinabulin monotherapy, solid tumor patients, no chemotherapy): did not experience any clinically significant deleterious changes | prevention of neutropenia caused by chemotherapies [3]: prevent neutropenia | DSN [4, 12]: 0.46 days | Grade 4 Incidence (%) [4, 12]: 23% | DSN [4, 13]: 0.43 days | Grade 4 Incidence (%) [4, 13]: 21% | DSN [4, 14]: 0.38 days | Grade 4 Incidence (%) [4, 14]: 15% | neutrophil count through time (FIG. 1) [4]: started to rise again on day 10 | treatment of neutropenia induced by chemotherapeutic agent ([4]; human, in vivo): effective in treating neutropenia | Immune-Related AEs (IR-AEs) [5]: without increasing Immune-Related AEs

CC(=O)O[C@@]12CO[C@@H]1C[C@H](O)[C@@]1(C)C(=O)[C@H](O)C3=C(C)[C@@H](OC(=O)[C@H](O)[C@@H](NC(=O)OC(C)(C)C)c4ccccc4)C[C@@](O)([C@@H](OC(=O)c4ccccc4)[C@H]21)C3(C)C [docetaxel]
proportion of patients with Grade 4 neutropenia [1]: 33.3% | calculated mean DSN [6]: 1.076 days | estimated median DSN [7]: 4 to 5 days | FN percentage ([8]; 75 mg/m^2 docetaxel): about 12.7% | frequency of FN ([8]; Cycle 1, docetaxel 100 mg/m^2 without G-CSF): 11% | frequency of FN ([8]; over all cycles, docetaxel 60 mg/m^2 without G-CSF): 19.8% | frequency of FN ([8]; over all cycles, docetaxel 100 mg/m^2 without G-CSF): 17% | increase of docetaxel exposure [9]: approximately 2 fold

B1: Neulasta: pegfilgrastim (Neulasta®), a granulocyte colony-stimulating factor (G-CSF) compound (protein, chains of the INN, looked up)
chain: TPLGPASSLPQSFLLKCLEQVRKIQGDGAALQEKLCATYKLCHPEELVLLGHSLGIPWAPLSSCPSQALQLAGCLSQLHSGLFLYQGLLQALEGISPELGPTLDTLQLDVADFATTIWQQMEELGMAPALQPTQGAMPAFASAFQRRAGGVLVASHLQSFLEVSYRVLRHLAQP
DSN [4, 15]: 0.14 days | Grade 4 Incidence (%) [4, 15]: 14% | neutrophil count through time (FIG. 1) [4]: had an initial increase and then began to drop after 10 days | bone pain, patients [10]: 31% | pain in an extremity, patients [10]: 9%

B2: G-CSF: Granulocyte-colony stimulating factor; G-CSF compounds include filgrastim and pegfilgrastim (protein, UniProt P09919 31-207, looked up)
Granulocyte …: TPLGPASSLPQSFLLKCLEQVRKIQGDGAALQEKLVSECATYKLCHPEELVLLGHSLGIPWAPLSSCPSQALQLAGCLSQLHSGLFLYQGLLQALEGISPELGPTLDTLQLDVADFATTIWQQMEELGMAPALQPTQGAMPAFASAFQRRAGGVLVASHLQSFLEVSYRVLRHLAQP
Bone Pain (% of patients) [11]: >20% | Hospitalization (% of patients) [11]: 20% | mean DSN ([8]; G-CSF treatment with TAC chemotherapy, 95% CI: 1.07-1.69): 1.4 days
